Reference: ChEMBL document CHEMBL4229333, “Effects of rigidity on the selectivity of protein kinase inhibitors” (Eur J Med Chem, 2018)

Legend:
[1] = molecular target: Insulin receptor (Homo sapiens) (UniProt P06213); test: Inhibition of INSR (unknown origin) at 1 uM by mobility shift microfluidics platform based assay relative to control
[2] = molecular target: Platelet-derived growth factor receptor beta (Homo sapiens) (UniProt P09619); test: Inhibition of PDGFR-beta (unknown origin) at 1 uM by mobility shift microfluidics platform based assay relative to control
[3] = molecular target: Dual specificity protein kinase CLK3 (Homo sapiens) (UniProt P49761); test: Inhibition of CLK3 (unknown origin) at 1 uM by mobility shift microfluidics platform based assay relative to control
[4] = molecular target: Tyrosine-protein kinase BTK (Homo sapiens) (UniProt Q06187); test: Inhibition of BTK (unknown origin) at 1 uM by mobility shift microfluidics platform based assay relative to control
[5] = molecular target: Phosphatidylinositol 4,5-bisphosphate 3-kinase catalytic subunit beta isoform (Homo sapiens) (UniProt P42338); test: Inhibition of PI3K-beta (unknown origin) at 1 uM by mobility shift microfluidics platform based assay relative to control
[6] = species: Homo sapiens; test: Inhibition of CDK/cyclin D3 (unknown origin) at 1 uM by mobility shift microfluidics platform based assay relative to control
[7] = molecular target: Hepatocyte growth factor receptor (Homo sapiens) (UniProt P08581); test: Inhibition of MET (unknown origin) at 1 uM by mobility shift microfluidics platform based assay relative to control
Chain of Hepatocyte growth factor receptor (Homo sapiens) (P08581 whole entry): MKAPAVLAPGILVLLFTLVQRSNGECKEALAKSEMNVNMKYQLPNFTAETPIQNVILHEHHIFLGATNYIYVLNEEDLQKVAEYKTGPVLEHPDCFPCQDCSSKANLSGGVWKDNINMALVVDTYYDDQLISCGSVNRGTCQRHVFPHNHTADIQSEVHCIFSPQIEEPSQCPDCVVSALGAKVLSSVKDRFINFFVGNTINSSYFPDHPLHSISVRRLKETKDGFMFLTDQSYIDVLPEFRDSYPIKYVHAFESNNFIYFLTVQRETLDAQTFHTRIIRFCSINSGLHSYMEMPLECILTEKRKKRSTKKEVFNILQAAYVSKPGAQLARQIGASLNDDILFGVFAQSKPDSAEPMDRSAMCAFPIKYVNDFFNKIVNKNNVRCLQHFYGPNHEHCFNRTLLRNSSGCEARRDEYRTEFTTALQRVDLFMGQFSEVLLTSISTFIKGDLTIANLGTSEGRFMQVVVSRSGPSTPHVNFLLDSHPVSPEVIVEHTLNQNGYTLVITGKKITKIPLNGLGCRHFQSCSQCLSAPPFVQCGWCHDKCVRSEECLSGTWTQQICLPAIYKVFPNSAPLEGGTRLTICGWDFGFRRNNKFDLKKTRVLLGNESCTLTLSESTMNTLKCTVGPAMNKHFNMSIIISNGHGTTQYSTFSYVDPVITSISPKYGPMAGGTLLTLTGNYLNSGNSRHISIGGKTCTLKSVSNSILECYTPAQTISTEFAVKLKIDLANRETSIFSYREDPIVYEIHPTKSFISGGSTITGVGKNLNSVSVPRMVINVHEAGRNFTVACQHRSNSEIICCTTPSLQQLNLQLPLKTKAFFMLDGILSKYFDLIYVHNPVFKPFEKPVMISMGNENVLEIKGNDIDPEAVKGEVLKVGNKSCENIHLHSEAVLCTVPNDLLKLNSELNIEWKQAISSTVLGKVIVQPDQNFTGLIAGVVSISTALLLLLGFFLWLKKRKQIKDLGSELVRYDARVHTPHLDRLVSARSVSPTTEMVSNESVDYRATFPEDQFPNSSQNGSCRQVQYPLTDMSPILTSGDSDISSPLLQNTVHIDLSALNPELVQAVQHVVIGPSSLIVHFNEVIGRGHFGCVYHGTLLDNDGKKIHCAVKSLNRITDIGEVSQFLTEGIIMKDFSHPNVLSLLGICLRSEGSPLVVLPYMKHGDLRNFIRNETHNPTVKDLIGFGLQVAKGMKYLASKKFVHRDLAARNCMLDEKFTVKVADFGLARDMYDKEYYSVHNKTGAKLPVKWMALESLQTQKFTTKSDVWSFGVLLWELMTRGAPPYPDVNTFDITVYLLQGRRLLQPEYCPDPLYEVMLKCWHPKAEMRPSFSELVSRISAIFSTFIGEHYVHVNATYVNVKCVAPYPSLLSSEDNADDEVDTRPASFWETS

[8] = molecular target: Serine/threonine-protein kinase PLK3 (Homo sapiens) (UniProt Q9H4B4); test: Inhibition of PLK3 (unknown origin) at 1 uM by mobility shift microfluidics platform based assay relative to control
[9] = molecular target: Homeodomain-interacting protein kinase 1 (Homo sapiens) (UniProt Q86Z02); test: Inhibition of HIPK1 (unknown origin) at 1 uM by mobility shift microfluidics platform based assay relative to control
[10] = molecular target: AMPK alpha2/beta1/gamma1 (Homo sapiens) (UniProt P54646+P54619+Q9Y478); test: Inhibition of AMP-A2B1G1 (unknown origin) at 1 uM by mobility shift microfluidics platform based assay relative to control; assay type: protein-complex assay
[11] = molecular target: Dual specificity tyrosine-phosphorylation-regulated kinase 3 (Homo sapiens) (UniProt O43781); test: Inhibition of DYRK3 (unknown origin) at 1 uM by mobility shift microfluidics platform based assay relative to control
[12] = molecular target: Tyrosine-protein kinase Blk (Homo sapiens) (UniProt P51451); test: Inhibition of BLK (unknown origin) at 1 uM by mobility shift microfluidics platform based assay relative to control
[13] = molecular target: Serine/threonine-protein kinase pim-3 (Homo sapiens) (UniProt Q86V86); test: Inhibition of PIM3 (unknown origin) at 1 uM by mobility shift microfluidics platform based assay relative to control
[14] = molecular target: Vascular endothelial growth factor receptor 3 (Homo sapiens) (UniProt P35916); test: Inhibition of FLT4 (unknown origin) at 1 uM by mobility shift microfluidics platform based assay relative to control
[15] = molecular target: Cyclin-dependent kinase 5/CDK5 activator 1 (Homo sapiens) (UniProt Q00535+Q15078); test: Inhibition of CDK5-p25 (unknown origin) at 1 uM by mobility shift microfluidics platform based assay relative to control; assay type: protein-complex assay
Chain of Cyclin-dependent kinase 5/CDK5 activator 1 (Homo sapiens) (Q00535 whole entry): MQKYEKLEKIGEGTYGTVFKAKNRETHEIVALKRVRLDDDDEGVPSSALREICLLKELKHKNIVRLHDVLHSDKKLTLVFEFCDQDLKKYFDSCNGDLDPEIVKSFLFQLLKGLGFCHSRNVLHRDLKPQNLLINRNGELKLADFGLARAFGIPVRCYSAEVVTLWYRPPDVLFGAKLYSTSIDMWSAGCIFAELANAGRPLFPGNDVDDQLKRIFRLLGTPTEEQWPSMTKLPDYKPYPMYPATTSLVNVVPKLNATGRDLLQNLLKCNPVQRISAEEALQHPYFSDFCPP
Chain of Cyclin-dependent kinase 5/CDK5 activator 1 (Homo sapiens) (Q15078 99-307 partner limits assumed): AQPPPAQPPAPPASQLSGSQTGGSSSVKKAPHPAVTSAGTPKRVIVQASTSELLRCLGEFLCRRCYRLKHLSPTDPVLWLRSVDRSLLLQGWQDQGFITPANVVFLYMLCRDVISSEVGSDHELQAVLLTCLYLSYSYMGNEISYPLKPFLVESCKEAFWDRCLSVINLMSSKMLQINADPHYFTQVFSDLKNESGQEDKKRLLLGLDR

[16] = molecular target: Tyrosine-protein kinase Lck (Homo sapiens) (UniProt P06239); test: Inhibition of LCK (unknown origin) at 1 uM by mobility shift microfluidics platform based assay relative to control
[17] = molecular target: cGMP-dependent protein kinase 2 (Homo sapiens) (UniProt Q13237); test: Inhibition of PRKG2 (unknown origin) at 1 uM by mobility shift microfluidics platform based assay relative to control
[18] = molecular target: NT-3 growth factor receptor (Homo sapiens) (UniProt Q16288); test: Inhibition of TRKC (unknown origin) at 1 uM by mobility shift microfluidics platform based assay relative to control
[19] = molecular target: Tyrosine-protein kinase HCK (Homo sapiens) (UniProt P08631); test: Inhibition of HCK (unknown origin) at 1 uM by mobility shift microfluidics platform based assay relative to control
[20] = molecular target: Activated CDC42 kinase 1 (Homo sapiens) (UniProt Q07912); test: Inhibition of TNK2 (unknown origin) at 1 uM by mobility shift microfluidics platform based assay relative to control
Chain of Activated CDC42 kinase 1 (Homo sapiens) (Q07912 whole entry, looked up): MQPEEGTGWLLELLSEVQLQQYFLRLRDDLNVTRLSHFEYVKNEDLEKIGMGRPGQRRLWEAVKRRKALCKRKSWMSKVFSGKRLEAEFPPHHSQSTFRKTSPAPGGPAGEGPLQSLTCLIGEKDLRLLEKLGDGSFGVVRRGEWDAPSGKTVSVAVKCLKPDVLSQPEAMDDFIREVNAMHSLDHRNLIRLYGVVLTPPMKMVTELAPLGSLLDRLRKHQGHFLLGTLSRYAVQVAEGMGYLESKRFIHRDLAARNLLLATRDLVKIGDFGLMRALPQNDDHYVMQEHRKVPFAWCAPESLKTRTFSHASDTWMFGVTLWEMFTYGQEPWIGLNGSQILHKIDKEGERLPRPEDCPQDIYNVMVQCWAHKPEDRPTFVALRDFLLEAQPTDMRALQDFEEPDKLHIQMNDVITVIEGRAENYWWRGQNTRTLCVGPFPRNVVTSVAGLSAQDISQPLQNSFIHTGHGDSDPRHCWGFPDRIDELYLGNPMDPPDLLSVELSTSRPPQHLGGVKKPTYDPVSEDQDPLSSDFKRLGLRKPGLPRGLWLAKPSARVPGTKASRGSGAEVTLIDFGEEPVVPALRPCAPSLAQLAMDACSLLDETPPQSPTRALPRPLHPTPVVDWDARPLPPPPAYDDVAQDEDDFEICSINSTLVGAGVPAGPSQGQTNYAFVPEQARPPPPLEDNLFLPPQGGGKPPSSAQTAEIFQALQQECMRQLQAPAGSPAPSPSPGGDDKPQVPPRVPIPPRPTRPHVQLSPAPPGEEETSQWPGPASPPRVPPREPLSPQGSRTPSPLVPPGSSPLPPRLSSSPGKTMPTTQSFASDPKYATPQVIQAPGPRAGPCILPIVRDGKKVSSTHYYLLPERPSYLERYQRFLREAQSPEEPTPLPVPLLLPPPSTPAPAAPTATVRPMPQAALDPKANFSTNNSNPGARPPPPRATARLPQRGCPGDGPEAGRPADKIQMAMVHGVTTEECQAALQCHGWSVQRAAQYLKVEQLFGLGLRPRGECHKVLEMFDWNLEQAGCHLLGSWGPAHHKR

[21] = molecular target: Dual specificity tyrosine-phosphorylation-regulated kinase 1A (Homo sapiens) (UniProt Q13627); test: Inhibition of DYRK1A (unknown origin) at 1 uM by mobility shift microfluidics platform based assay relative to control
[22] = molecular target: Protein kinase C iota type (Homo sapiens) (UniProt P41743); test: Inhibition of PKC-iota (unknown origin) at 1 uM by mobility shift microfluidics platform based assay relative to control
[23] = molecular target: Protein NDRG1 (Homo sapiens) (UniProt Q92597); test: Inhibition of NDRG1 (unknown origin) at 1 uM by mobility shift microfluidics platform based assay relative to control
[24] = molecular target: Serine/threonine-protein kinase MARK1 (Homo sapiens) (UniProt Q9P0L2); test: Inhibition of MARK1 (unknown origin) at 1 uM by mobility shift microfluidics platform based assay relative to control
[25] = molecular target: Rho-associated protein kinase 1 (Homo sapiens) (UniProt Q13464); test: Inhibition of ROCK1 (unknown origin) at 1 uM by mobility shift microfluidics platform based assay relative to control
Chain of Rho-associated protein kinase 1 (Homo sapiens) (Q13464 2-1354 limits assumed): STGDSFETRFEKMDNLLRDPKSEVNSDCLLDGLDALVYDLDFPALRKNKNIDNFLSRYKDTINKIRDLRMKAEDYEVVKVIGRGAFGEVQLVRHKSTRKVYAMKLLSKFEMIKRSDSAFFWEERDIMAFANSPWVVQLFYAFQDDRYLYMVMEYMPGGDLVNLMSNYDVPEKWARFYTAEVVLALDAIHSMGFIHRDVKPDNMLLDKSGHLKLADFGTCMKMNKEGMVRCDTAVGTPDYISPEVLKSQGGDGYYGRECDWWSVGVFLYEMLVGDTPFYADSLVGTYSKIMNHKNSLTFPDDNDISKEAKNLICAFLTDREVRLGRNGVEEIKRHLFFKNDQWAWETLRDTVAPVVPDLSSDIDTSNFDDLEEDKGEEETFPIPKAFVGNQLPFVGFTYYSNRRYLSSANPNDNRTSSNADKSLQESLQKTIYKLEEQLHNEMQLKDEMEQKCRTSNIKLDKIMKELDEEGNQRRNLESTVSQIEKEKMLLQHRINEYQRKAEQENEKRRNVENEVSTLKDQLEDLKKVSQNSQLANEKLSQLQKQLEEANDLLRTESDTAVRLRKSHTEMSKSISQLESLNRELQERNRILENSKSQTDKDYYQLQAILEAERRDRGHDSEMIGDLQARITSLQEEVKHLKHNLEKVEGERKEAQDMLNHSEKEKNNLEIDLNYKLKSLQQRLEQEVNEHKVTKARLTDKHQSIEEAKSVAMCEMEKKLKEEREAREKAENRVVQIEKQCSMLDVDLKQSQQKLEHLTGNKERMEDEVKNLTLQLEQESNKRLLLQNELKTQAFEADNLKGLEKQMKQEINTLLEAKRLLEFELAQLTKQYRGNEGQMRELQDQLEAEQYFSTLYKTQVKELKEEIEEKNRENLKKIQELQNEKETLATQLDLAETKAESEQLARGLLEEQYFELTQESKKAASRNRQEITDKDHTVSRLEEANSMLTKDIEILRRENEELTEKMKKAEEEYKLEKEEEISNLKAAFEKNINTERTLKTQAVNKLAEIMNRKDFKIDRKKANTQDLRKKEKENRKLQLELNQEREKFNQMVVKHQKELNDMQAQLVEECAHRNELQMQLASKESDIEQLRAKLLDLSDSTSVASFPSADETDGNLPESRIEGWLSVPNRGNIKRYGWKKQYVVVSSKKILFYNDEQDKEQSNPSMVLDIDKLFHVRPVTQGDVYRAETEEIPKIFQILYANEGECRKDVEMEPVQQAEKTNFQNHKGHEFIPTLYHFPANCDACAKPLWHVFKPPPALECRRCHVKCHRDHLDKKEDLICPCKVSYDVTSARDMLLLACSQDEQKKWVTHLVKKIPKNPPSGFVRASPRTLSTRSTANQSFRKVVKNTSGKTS

[26] = molecular target: Discoidin domain-containing receptor 2 (Homo sapiens) (UniProt Q16832); test: Inhibition of DDR2 (unknown origin) at 1 uM by mobility shift microfluidics platform based assay relative to control
[27] = molecular target: Tyrosine-protein kinase FRK (Homo sapiens) (UniProt P42685); test: Inhibition of PTK5 (unknown origin) at 1 uM by mobility shift microfluidics platform based assay relative to control
[28] = molecular target: Eukaryotic translation initiation factor 2-alpha kinase 3 (Homo sapiens) (UniProt Q9NZJ5); test: Inhibition of PERK (unknown origin) at 1 uM by mobility shift microfluidics platform based assay relative to control
[29] = molecular target: Tyrosine-protein kinase CSK (Homo sapiens) (UniProt P41240); test: Inhibition of CSK (unknown origin) at 1 uM by mobility shift microfluidics platform based assay relative to control
[30] = molecular target: Calcium/calmodulin-dependent protein kinase type IV (Homo sapiens) (UniProt Q16566); test: Inhibition of CAMK4 (unknown origin) at 1 uM by mobility shift microfluidics platform based assay relative to control
[31] = molecular target: Serine/threonine-protein kinase Nek7 (Homo sapiens) (UniProt Q8TDX7); test: Inhibition of NEK7 (unknown origin) at 1 uM by mobility shift microfluidics platform based assay relative to control
[32] = molecular target: Serine/threonine-protein kinase PAK 4 (Homo sapiens) (UniProt O96013); test: Inhibition of PAK4 (unknown origin) at 1 uM by mobility shift microfluidics platform based assay relative to control
[33] = molecular target: Serine/threonine-protein kinase Sgk3 (Homo sapiens) (UniProt Q96BR1); test: Inhibition of SGK3 (unknown origin) at 1 uM by mobility shift microfluidics platform based assay relative to control
[34] = molecular target: Protein kinase C beta type (Homo sapiens) (UniProt P05771); test: Inhibition of PKC-beta2 (unknown origin) at 1 uM by mobility shift microfluidics platform based assay relative to control
Chain of Protein kinase C beta type (Homo sapiens) (P05771 2-671 limits assumed): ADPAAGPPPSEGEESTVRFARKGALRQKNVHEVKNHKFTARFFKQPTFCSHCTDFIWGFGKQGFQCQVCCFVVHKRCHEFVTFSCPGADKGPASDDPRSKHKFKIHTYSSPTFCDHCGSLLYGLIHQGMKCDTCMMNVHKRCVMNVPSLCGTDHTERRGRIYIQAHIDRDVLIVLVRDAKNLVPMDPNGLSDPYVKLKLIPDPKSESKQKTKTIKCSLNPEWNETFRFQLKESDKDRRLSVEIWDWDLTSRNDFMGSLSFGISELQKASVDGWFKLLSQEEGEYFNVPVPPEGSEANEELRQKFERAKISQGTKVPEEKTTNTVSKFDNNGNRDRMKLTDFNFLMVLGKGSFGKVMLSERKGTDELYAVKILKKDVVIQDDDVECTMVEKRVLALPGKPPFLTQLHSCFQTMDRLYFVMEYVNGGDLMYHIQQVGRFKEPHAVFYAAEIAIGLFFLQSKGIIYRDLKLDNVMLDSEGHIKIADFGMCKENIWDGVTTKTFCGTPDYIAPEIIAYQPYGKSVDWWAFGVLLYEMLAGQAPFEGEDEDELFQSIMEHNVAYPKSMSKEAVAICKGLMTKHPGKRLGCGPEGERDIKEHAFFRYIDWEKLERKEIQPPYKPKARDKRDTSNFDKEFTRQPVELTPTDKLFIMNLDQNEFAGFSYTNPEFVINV

inhibition [1] [%] | inhibition [2] [%] | inhibition [3] [%] | inhibition [4] [%] | inhibition [5] [%] | inhibition [6] [%] | inhibition [7] [%] | inhibition [8] [%] | inhibition [9] [%] | inhibition [10] [%] | inhibition [11] [%] | inhibition [12] [%] | inhibition [13] [%] | inhibition [14] [%] | inhibition [15] [%] | inhibition [16] [%] | inhibition [17] [%] | inhibition [18] [%] | inhibition [19] [%] | inhibition [20] [%] | further results | SMILES
12 | 100 | -1 | 71 | 1 | 8 | 8 | 3 | -3 | 3 | 7 | 95 | 0 | 99 | 2 | 100 | 24 | 59 | 107 | 13 | inhibition [21]: 2%; inhibition [22]: -3%; inhibition [23]: -3%; inhibition [24]: 1%; inhibition [25]: 5%; inhibition [26]: 93%; inhibition [27]: 95%; inhibition [28]: 29%; inhibition [29]: 93%; inhibition [30]: 11%; inhibition [31]: 1%; inhibition [32]: 0%; inhibition [33]: -2%; inhibition [34]: 2% | CC(C)n1nc(C#Cc2cccc(NC(=O)c3cccc(C(F)(F)F)c3)c2)c2c(N)ncnc21
5 | 71 | 6 | 5 | -5 | 1 | -1 | 0 | -2 | 1 | 1 | 57 | 1 | 97 | 2 | 85 | 9 | 14 | 81 | 3 | inhibition [21]: 2%; inhibition [22]: 2%; inhibition [23]: 6%; inhibition [24]: -2%; inhibition [25]: 1%; inhibition [26]: 96%; inhibition [27]: 18%; inhibition [28]: 0%; inhibition [29]: 31%; inhibition [30]: 6%; inhibition [31]: -2%; inhibition [32]: 2%; inhibition [33]: -3%; inhibition [34]: 5% | CC(C)n1nc(C#Cc2cccc3cc(-c4cccc(C(F)(F)F)c4)ncc23)c2c(N)ncnc21
